What was measured:
Cricetinae gen. sp. [1] = assay: Inhibition of lipid synthesis in hamster flank gland after administration of 0.1 mg.; type: functional
Cricetinae gen. sp. [2] = assay: Inhibition of increase in flank organ weight after administration of 0.5 mg.; type: functional, Cricetulus griseus
Cricetinae gen. sp. [3] = assay: Inhibition of increase in flank organ weight after administration of 1.0 mg.; type: functional, Cricetulus griseus
Cricetinae gen. sp. [4] = assay: The compound was tested for the treated flank organ weight after -0.75 ug topical application for 14 days.; type: functional, Cricetulus griseus
Cricetinae gen. sp. [5] = assay: The compound was tested for the seminal vesicle weight after -1 mg sc administration for 14 days.; type: functional, Cricetulus griseus
Cricetinae gen. sp. [6] = assay: The compound was tested for the treated flank organ weight after -0.375 ug topical application for 14 days.; type: functional, Cricetulus griseus
Cricetinae gen. sp. [7] = assay: The compound was tested for the seminal vesicle weight after -0.375 ug topical application for 14 days.; type: functional, Cricetulus griseus
Cricetinae gen. sp. [8] = assay: The compound was tested for the treated flank organ weight after -1 mg sc administration for 14 days.; type: functional, Cricetulus griseus
Cricetinae gen. sp. [9] = assay: The compound was tested for the seminal vesicle weight after -0.75 ug topical application for 14 days.; type: functional, Cricetulus griseus
Cricetinae gen. sp. [10] = assay: The compound was tested for the seminal vesicle weight after -5 mg sc administration for 14 days.; type: functional, Cricetulus griseus
Cricetinae gen. sp. [11] = assay: The compound was tested for the treated flank organ weight after -5 mg sc administration for 14 days; type: functional, Cricetulus griseus

[O-][S+](CCl)Cc1ccccc1 (stereo unspecified)
Inhibition (Cricetinae gen. sp. [1]): 14%

C[C@]12C=CC(=O)C=C1CCC1C2C(=O)C[C@@]2(C)C1CC[C@]2(Cl)[S+]([O-])CCc1ccccc1 (stereo partly specified)
Inhibition (Cricetinae gen. sp. [1]): 0%
Inhibition (Cricetinae gen. sp. [2]): 16%

C[C@]12C=CC(=O)C=C1CCC1C2CC[C@@]2(C)C1CC[C@]2(Cl)[S+]([O-])Cc1ccccc1 (stereo partly specified)
Inhibition (Cricetinae gen. sp. [1]): <40%

C[C@]12C=CC(=O)C=C1CCC1C2C(=O)C[C@@]2(C)C1CC[C@]2(Cl)[S+]([O-])Cc1ccccc1 (stereo partly specified)
Inhibition (Cricetinae gen. sp. [3]): 53%
Organ weight (Cricetinae gen. sp. [4]): <23.7 mg
Organ weight (Cricetinae gen. sp. [5]): 138 mg
Inhibition (Cricetinae gen. sp. [1]): <70%
Organ weight (Cricetinae gen. sp. [6]): <29.5 mg
Organ weight (Cricetinae gen. sp. [7]): 351 mg
Organ weight (Cricetinae gen. sp. [8]): <21.5 mg
Organ weight (Cricetinae gen. sp. [9]): 358 mg
Organ weight (Cricetinae gen. sp. [10]): 128 mg
Organ weight (Cricetinae gen. sp. [11]): <19.5 mg
Inhibition (Cricetinae gen. sp. [2]): 43%

C[C@]12C=CC(=O)C=C1CCC1C2C(=O)C[C@@]2(C)C1CC[C@H]2[S+]([O-])C(Cl)c1ccccc1 (stereo partly specified)
Inhibition (Cricetinae gen. sp. [1]): 0%

C[C@]12C=CC(=O)C=C1CCC1C2C(=O)C[C@@]2(C)C1CC[C@]2(Cl)S(=O)(=O)Cc1ccccc1 (stereo partly specified)
Inhibition (Cricetinae gen. sp. [1]): <31%

C[C@]12C=CC(=O)C=C1CCC1C2[C@@H](O)C[C@@]2(C)C1CC[C@]2(Cl)[S+]([O-])Cc1ccccc1 (stereo partly specified)
Inhibition (Cricetinae gen. sp. [1]): <20%

C[C@]12C=CC(=O)C=C1CCC1C2CC[C@@]2(C)C1CC[C@H]2SCc1ccccc1 (stereo partly specified)
Inhibition (Cricetinae gen. sp. [1]): 0%

C[C@]12C=CC(=O)C=C1CCC1C2C(=O)C[C@@]2(C)C1CC[C@H]2Sc1ccccc1 (stereo partly specified)
Inhibition (Cricetinae gen. sp. [1]): <25%

[O-][S+](Cc1ccccc1)[C@@H](Cl)c1ccccc1 (stereo partly specified)
Inhibition (Cricetinae gen. sp. [1]): 14%

C[C@]12C=CC(=O)C=C1CCC1C2C(=O)C[C@@]2(C)C1CC[C@H]2SCc1ccccc1 (stereo partly specified)
Inhibition (Cricetinae gen. sp. [1]): <29%

C[C@]12C=CC(=O)C=C1CCC1C2[C@@H](O)C[C@@]2(C)C1CC[C@H]2SCc1ccccc1 (stereo partly specified)
Inhibition (Cricetinae gen. sp. [1]): 0%

C[C@]12C=CC(=O)C=C1CCC1C2C(=O)C[C@@]2(C)C1CC[C@H]2[S+]([O-])Cc1ccccc1 (stereo partly specified)
Inhibition (Cricetinae gen. sp. [1]): 28%

CCCCC[S+]([O-])[C@@]1(Cl)CCC2C3CCC4=CC(=O)C=C[C@]4(C)C3C(=O)C[C@@]21C (stereo partly specified)
Inhibition (Cricetinae gen. sp. [1]): <29%

Cc1ccccc1C[S+]([O-])[C@@]1(Cl)CCC2C3CCC4=CC(=O)C=C[C@]4(C)C3C(=O)C[C@@]21C (stereo partly specified)
Inhibition (Cricetinae gen. sp. [1]): 31%

C[C@]12C=CC(=O)C=C1CCC1C2C(=O)C[C@@]2(C)C1CC[C@]2(Cl)[S+]([O-])Cc1ccc(Cl)cc1Cl (stereo partly specified)
Inhibition (Cricetinae gen. sp. [1]): 20%

C[C@]12C=CC(=O)C=C1CCC1C2C(=O)C[C@@]2(C)C1CC[C@]2(Cl)[S+]([O-])c1ccccc1 (stereo partly specified)
Inhibition (Cricetinae gen. sp. [1]): 20%

C[C@]1(O)CC[C@H]2[C@@H]3CCC4=CC(=O)CC[C@@H]4[C@H]3CC[C@@]21C [NORMETHANDRONE]
Organ weight (Cricetinae gen. sp. [4]): <13.7 mg
Organ weight (Cricetinae gen. sp. [5]): 121 mg
Organ weight (Cricetinae gen. sp. [6]): <15.6 mg
Organ weight (Cricetinae gen. sp. [7]): 316 mg
Organ weight (Cricetinae gen. sp. [8]): <22.5 mg
Organ weight (Cricetinae gen. sp. [9]): <283 mg
Organ weight (Cricetinae gen. sp. [10]): <94 mg
Organ weight (Cricetinae gen. sp. [11]): <22.1 mg

From ChEMBL document CHEMBL1122313, “Novel 17 alpha-chloro-17 beta-sulfinyl steroids as specific inhibitors of sebaceous gland activity: potential antiacne agents” (1983)
